Common to all, as to assay type: functional
For assay [1], the system named is Candida tropicalis. In words: microbe, parasite or virus in culture. The conditions noted are these: 3890, time 48 hrs.
Description: Antifungal activity against fluconazole-resistant Candida tropicalis 3890 assessed as inhibition of fungal growth incubated for 48 hrs by two-fold serial microdilution method
In assay [2] the test system is Candida albicans. In words: Antifungal activity against fluconazole-sensitive Candida albicans 10061 assessed as inhibition of fungal growth.
Assay [3] has as its system Candida albicans. In words: Antifungal activity against fluconazole-sensitive Candida albicans 9770 assessed as inhibition of fungal growth.
For another assay, the system named is Cryptococcus neoformans. In words: microbe, parasite or virus in culture. Particulars: H99, time 72 hrs.
In assay [4] the test system is Candida albicans. In words: Antifungal activity against fluconazole-sensitive Candida albicans SC5314 assessed as inhibition of fungal growth.
The test system of assay [5] is Candida albicans. In words: microbe, parasite or virus in culture. The conditions noted are these: 4108.
Description: Antifungal activity against fluconazole-sensitive Candida albicans 4108 assessed as inhibition of fungal growth
For assay [6], the system named is Candida albicans. In words: microbe, parasite or virus in culture. Particulars: 0304103.
Description: Antifungal activity against fluconazole-sensitive Candida albicans 0304103 assessed as inhibition of fungal growth
The test system of assay [7] is Candida albicans. In words: microbe, parasite or virus in culture. Particulars: 7781.
Description: Antifungal activity against fluconazole-sensitive Candida albicans 7781 assessed as inhibition of fungal growth
The subject of assay [8] is Candida tropicalis. In words: microbe, parasite or virus in culture. The conditions noted are these: 5008, time 48 hrs.
Description: Antifungal activity against fluconazole-resistant Candida tropicalis 5008 assessed as inhibition of fungal growth incubated for 48 hrs by two-fold serial microdilution method

Values after ≈ are worked out from the molar mass of the structure shown.

Description for Cryptococcus neoformans: Antifungal activity against Cryptococcus neoformans H99 assessed as inhibition of fungal growth incubated for 72 hrs by two-fold serial microdilution method

With `O=C(Cc1ccc(OCCCn2ncn(-c3ccc(CN4CCN(CC(O)(Cn5cncn5)c5ccc(F)cc5F)CC4)cc3)c2=O)cc1)NO` (stereo not drawn), the MIC80 against Candida tropicalis [1] was determined as 2 µg/mL (≈ 2.84 µM); in the assay with Candida albicans [2], 32 µg/mL (≈ 45.5 µM); in the assay with Candida albicans [3] it was 32 µg/mL (≈ 45.5 µM); in the assay on Cryptococcus neoformans, 2 µg/mL (≈ 2.84 µM); in the assay on Candida albicans [4] it was 2 µg/mL (≈ 2.84 µM); against Candida albicans [5], 4 µg/mL (≈ 5.68 µM). Also, the MIC80 was 2 µg/mL (≈ 2.84 µM) against Candida albicans [6], 2 µg/mL (≈ 2.84 µM) in the assay with Candida albicans [7] and 16 µg/mL (≈ 22.7 µM) in the assay on Candida tropicalis [8].

On to `O=C(CCCCCCOc1ccc(CN2CCN(CC(O)(Cn3cncn3)c3ccc(F)cc3F)CC2)cc1)NO` (stereo not drawn), for which the MIC80 was determined as 2 µg/mL (≈ 3.49 µM) against Candida tropicalis [1]; 32 µg/mL (≈ 55.9 µM) in the assay on Candida albicans [2]; 32 µg/mL (≈ 55.9 µM) in the assay on Candida albicans [3]; 0.5 µg/mL (≈ 0.873 µM) against Cryptococcus neoformans; 1 µg/mL (≈ 1.75 µM) with Candida albicans [4]; 8 µg/mL (≈ 14 µM) against Candida albicans [5]. In addition, the MIC80 against Candida albicans [6] was 16 µg/mL (≈ 27.9 µM); in the assay with Candida albicans [7], 1 µg/mL (≈ 1.75 µM); against Candida tropicalis [8], 0.5 µg/mL (≈ 0.873 µM).

As for `O=C(CCCOc1ccc(CN2CCN(CC(O)(Cn3cncn3)c3ccc(F)cc3F)CC2)cc1)NO` (stereo not drawn), the MIC80 was 4 µg/mL (≈ 7.54 µM) with Candida tropicalis [1]; 32 µg/mL (≈ 60.3 µM) in the assay with Candida albicans [2]; over 64 µg/mL in the assay on Candida albicans [3]; 8 µg/mL (≈ 15.1 µM) in the assay with Cryptococcus neoformans; 4 µg/mL (≈ 7.54 µM) in the assay with Candida albicans [4]; 16 µg/mL (≈ 30.2 µM) with Candida albicans [5]. Moreover, the MIC80 in the assay with Candida albicans [6] is 8 µg/mL (≈ 15.1 µM); in the assay on Candida albicans [7], 8 µg/mL (≈ 15.1 µM); in the assay on Candida tropicalis [8] it was 4 µg/mL (≈ 7.54 µM).

Turning to `O=C(NO)c1ccc(CCCCn2ncn(-c3ccc(CN4CCN(CC(O)(Cn5cncn5)c5ccc(F)cc5F)CC4)cc3)c2=O)cc1` (stereo not drawn), the MIC80 was over 64 µg/mL against Candida tropicalis [1]; over 64 µg/mL with Candida albicans [2]; over 64 µg/mL with Candida albicans [3]; 8 µg/mL (≈ 11.6 µM) against Cryptococcus neoformans; over 64 µg/mL in the assay on Candida albicans [4]; over 64 µg/mL against Candida albicans [5]. Further, the MIC80 in the assay with Candida albicans [6] was over 64 µg/mL; against Candida albicans [7], 16 µg/mL (≈ 23.3 µM); with Candida tropicalis [8] it was over 64 µg/mL.

`O=C(CCCCCCCn1ncn(-c2ccc(CN3CCN(CC(O)(Cn4cncn4)c4ccc(F)cc4F)CC3)cc2)c1=O)NO` (stereo not drawn): the MIC80 with Candida tropicalis [1] is over 64 µg/mL; in the assay on Candida albicans [3], over 64 µg/mL; against Cryptococcus neoformans, 32 µg/mL (≈ 48.9 µM); with Candida albicans [4] it was over 64 µg/mL; in the assay on Candida albicans [6], 64 µg/mL (≈ 97.9 µM); against Candida albicans [7], 64 µg/mL (≈ 97.9 µM). In the assay on Candida tropicalis [8], this compound yielded an MIC80 of over 64 µg/mL.

Regarding `C[C@@H](c1ncncc1F)[C@](O)(Cn1cncn1)c1ccc(F)cc1F` [VORICONAZOLE], the MIC80 against Candida tropicalis [1] was over 64 µg/mL; against Cryptococcus neoformans, 0.0625 µg/mL (≈ 0.179 µM); in the assay with Candida albicans [4], under 0.125 µg/mL; against Candida albicans [5], over 64 µg/mL; in the assay on Candida albicans [6], over 64 µg/mL; against Candida albicans [7] it was over 64 µg/mL. The compound further showed an MIC80 against Candida tropicalis [8] of over 64 µg/mL.

With `CCC(C)n1ncn(-c2ccc(N3CCN(c4ccc(OCC5COC(Cn6cncn6)(c6ccc(Cl)cc6Cl)O5)cc4)CC3)cc2)c1=O` (stereo not drawn) [ITRACONAZOLE], the MIC80 with Candida tropicalis [1] was over 64 µg/mL; against Cryptococcus neoformans, 0.125 µg/mL (≈ 0.177 µM); in the assay with Candida albicans [4], 0.5 µg/mL (≈ 0.709 µM); in the assay on Candida albicans [5], over 64 µg/mL; in the assay on Candida albicans [6], over 64 µg/mL; in the assay with Candida albicans [7], over 64 µg/mL. For the same compound, in the assay with Candida tropicalis [8], the MIC80 was over 64 µg/mL.

As for `O=C(CCCCCOc1ccc(CN2CCN(CC(O)(Cn3cncn3)c3ccc(F)cc3F)CC2)cc1)NO` (stereo not drawn), the MIC80 is 2 µg/mL (≈ 3.58 µM) in the assay with Candida tropicalis [1]; over 64 µg/mL with Candida albicans [2]; 32 µg/mL (≈ 57.3 µM) with Candida albicans [3]; 8 µg/mL (≈ 14.3 µM) in the assay on Cryptococcus neoformans; 1 µg/mL (≈ 1.79 µM) in the assay on Candida albicans [4]; 16 µg/mL (≈ 28.6 µM) against Candida albicans [5]. For the same compound, the MIC80 came to 32 µg/mL (≈ 57.3 µM) against Candida albicans [6], 2 µg/mL (≈ 3.58 µM) with Candida albicans [7] and 1 µg/mL (≈ 1.79 µM) against Candida tropicalis [8].

In the case of `O=C(CCCCCCn1ncn(-c2ccc(CN3CCN(CC(O)(Cn4cncn4)c4ccc(F)cc4F)CC3)cc2)c1=O)NO` (stereo not drawn), the MIC80 against Candida tropicalis [1] is over 64 µg/mL; in the assay with Candida albicans [3] it was over 64 µg/mL; in the assay with Cryptococcus neoformans it was 64 µg/mL (≈ 100 µM); in the assay with Candida albicans [4], over 64 µg/mL; against Candida albicans [6], over 64 µg/mL; in the assay on Candida albicans [7], 32 µg/mL (≈ 50 µM). In addition, in the assay with Candida tropicalis [8], the MIC80 was over 64 µg/mL.

For the origin of these results see ChEMBL document CHEMBL4842325, “Lanosterol 14α-demethylase (CYP51)/histone deacetylase (HDAC) dual inhibitors for treatment of Candida tropicalis and Cryptococcus neoformans infections” (Eur J Med Chem, 2021).
